US9687480B2, “Chiral 1-(4-methylphenylmethyl)-5-oxo-{N-[(3-t-butoxycarbonyl-aminomethyl)]-piperidin-1-yl)-pyrrolidine as inhibitors of collagen induced platelet activation and adhesion” (Council of Scientific & Industrial Research, priority 2011, dated 2017)

How the values were obtained:
[1] = system: hamster whole blood (Collagen 2.5 μg/ml); experiment: Whole blood aggregation in hyperlipidemic hamsters (ex vivo), collagen induced; conditions: HCHF hamsters ex vivo, aspirin 100 μM/kg, clopidogrel 30 μM/kg
hamster platelets = experiment: Platelet adhesion on collagen coated surface (hyperlipidemic hamster model, ex vivo); format: in vivo, hamsters; conditions: hyperlipidemic hamsters, ex vivo
Method: Platelet adhesion to collagen was measured in polystyrene 96-well micro titer plates. Micro titer plates were coated with insoluble equine tendon native fibrillar type I collagen (Chrono-Log Corp. Havertown, USA), 2 μg/well in 5 mM acetic acid (Tandon N N, Ockenhouse C F, Greco […]. Adhesive functions of platelet lacking GPIV (CD36). Blood 1991; 78: 2809-13) overnight at 4° C. The unoccupied protein binding sites on the wells were blocked with 0.5% BSA in Tyrode's-HEPES buffer (136.7 mM NaCl, 13.8 mM NaHCO3. 0.36 mM NaH2PO4.H2O, 2.6 mM KCl, 1.0 mM MgCl2.6H2O, 5.5 mM glucose, pH 7.4) at room temperature for 1 hour, and then rinsed once with PBS. Washed platelets were suspended in the Tyrode's-HEPES buffer and added to the wells (2×10^7 cells/well) for 1 h at room temperature. After three washes with PBS, the number of adherent platelets was evaluated colorimetrically (Bellavite P., Andrioli G., Gizzo P., Arigliano P., Chirumbolo […] colorimetric method for the measurement of platelet adhesion in microtiter plates. Anal. Blochem. 1994; 216:444-450). Briefly, 150 μl of a 0.1 M citrate buffer (pH 5.4), containing 5 mM p-nitrophenyl phosphate and 0.1% TritonX-100 was added to the wells after washing. After incubation for 30 minutes at 25° C. in the absence of ambient light, colour was developed by the addition of 100 μl of 2N NaOH and the absorbance at 405 nm was read using a microplate reader (Powerware XS, Biotek, USA).

rats = experiment: FeCl3 induced carotid artery thrombosis in rats; format: in vivo; conditions: rats; compound 1 at the same dose as compound 6; aspirin at a very high dose
Method: Male SD rats were anesthetized by urethane (1.25 g/kg, i.p.). The carotid artery was carefully dissected and a pulsed Doppler Probe (DBF-120A-CPx, CBI-8000, Crystal Biotech, USA) was placed around it to record the blood flow velocity and patency of the blood vessels. The carotid artery thrombosis was induced by FeCl3 as follows: a square (1×1 mm) of Whatman Chromatography paper was immersed in 20% FeCl3 solution for 5 min and placed on the carotid artery as described earlier (Kurz K D, Main B W, Sandusky G E. Rat model of arterial thrombosis induced by ferric chloride. Thromb Res 1990; 60(4):269-80). Thrombosis was monitored as the reduction in carotid artery blood flow. The time at which the blood-flow velocity was decreased to zero was recorded as the total of occlusion (TTO) of the carotid artery. […] (Ferric Chloride induced thrombosis (FIG. 7))

mouse platelets = experiment: Platelet adhesion over collagen matrix (mice, ex vivo); format: in vivo; conditions: oral route, compound 6 10, 30, 100 μM/kg, aspirin 100 μM/kg
Excerpt: FIG. 4b: Adhesion of mouse platelets on collagen matrix as observed under fluorescence microscope 40× (ex vivo method). Different pictures show the different treatment performed. Washed murine platelets (2×10^6/ml) were obtained from animals pretreated with the compound (compound 6) (different doses) and seeded on BSA or Collagen (fibrillar) coated cover slips (A, B). Platelets from untreated animals were allowed to adhere on uncoated and BSA coated cover slip respectively to delineate the possibility of non specific binding. C, D. control platelets were adhered on collagen coated cover slip (control). E. F&G. Platelets obtained from animals pre-treated with compound 6 (10 μM/kg, 30 μM/kg & 100 μM/kg) respectively were adhered on collagen coated cover slip. H, I. Platelets from Aspirin (100 μM/kg) & Clopidogrel treated (100 μM/kg) animals resp. (standard Drugs) and adhered on collagen coated cover slip (n=5, 5 animals/group/experiment).

mice = experiment: Tail bleeding time in mice; format: in vivo; conditions: aspirin 170 μM/kg, clopidogrel 30 μM/kg
Method: Bleeding time in mice was evaluated by the method of Dejana et al, (Dejana E, Callioni A, Quintana A, Gaetano G. Bleeding time in laboratory animals. II—A comparison of different assay conditions in rats. […] The time elapsed from the tip incision to the stoppage of bleeding was determined as the bleeding time. The preferred compounds, aspirin (30 mg/kg) or vehicle was given orally 60 min prior to the tail incision in a group of 5 mice each.

[2] = system: hamster whole blood (ADP 10 μM); experiment: Whole blood aggregation in hyperlipidemic hamsters (ex vivo), ADP induced; conditions: HCHF hamsters ex vivo, aspirin 100 μM/kg, clopidogrel 30 μM/kg
hyperlipidemic hamsters [3] = experiment: Arterio-venous shunt model in hyperlipidemic hamsters; format: in vivo; conditions: hyperlipidemic hamsters; compound 6 at 10 μM/kg
[4] = system: hamster whole blood (Thrombin 1 U/ml); experiment: Whole blood aggregation in hyperlipidemic hamsters (ex vivo), thrombin induced; conditions: HCHF hamsters ex vivo; aspirin 100 μM/kg, clopidogrel 30 μM/kg
hyperlipidemic hamsters [5] = experiment: FeCl3 induced thrombosis in hyperlipidemic hamsters; format: in vivo; conditions: HCHF fed hamsters
Method: HCHF treated hamsters were anesthetized by urethane (1.25 g/kg, i.p.). The carotid artery was carefully dissected and a pulsed Doppler Probe (DBF-120A-CPx, CBI-8000, Crystal Biotech. USA) was placed around it to record the blood flow velocity and potency of the blood vessels. The carotid artery thrombosis was induced by FeCl3 as follows: a square (1×1 mm) of Whatman Chromatography paper was immersed in 30% FeCl3 solution for 5 min and placed on the carotid artery as described earlier (Kurz K D, Main B W, Sandusky G E. Rat model of arterial thrombosis induced by ferric chloride. Thromb Res 1990; 60(4):269-80). Thrombosis was monitored as the reduction in carotid artery blood flow. The time at which the blood-flow velocity was decreased to zero was recorded as the total of occlusion of the vessel.

Compound	collagen induced whole blood platelet aggregation [1]	collagen induced whole blood platelet aggregation ([1]; listed as Aspirin)	platelet adhesion over collagen coated surface (hamster platelets)	time to occlude the carotid artery (TTO) (rats)	platelet adhesion (ex vivo) over collagen surface (mouse platelets)	bleeding time, standard drugs (mice)	ADP induced whole blood platelet aggregation [2]	thrombus weight (hyperlipidemic hamsters [3])	thrombin induced whole blood platelet aggregation [4]	time to occlusion (TTO) (hyperlipidemic hamsters [5])	ADP induced whole blood platelet aggregation ([2]; listed as Clopidogrel)
CC(=O)Oc1ccccc1C(=O)O [aspirin, reference compound]	but not collagen induced aggregation	reduced platelet aggregation in response to collagen	no alteration	remained ineffective	did not exhibit any inhibitory effect	significantly prolonged	can only inhibit ADP and Thrombin	significantly reduced	can only inhibit ADP and Thrombin	significantly prolonged	–
COC(=O)[C@H](c1ccccc1Cl)N1CCc2sccc2C1 [clopidogrel, reference compound]	inhibited ADP and collagen induced platelet aggregation	–	significant reduction	–	–	–	can only inhibit ADP induced aggregation	significantly reduced	–	significantly prolonged	inhibited ADP and collagen induced platelet aggregation
